# From patent US11666640B2, “Glucose oxidase compositions as a neonate anticonvulsant” (PENN STATE RESEARCH FOUNDATION, priority 2018, dated 2023)
# “Also recorded” adds a separate entry of the source.
# Legend:
# [1] = tested on: KA induced neonatal seizure; test: KA-induced neonatal seizure, in vivo EEG recording; parameters: species or system rat
# Method: For example, neonatal rats were administered gluconate to determine the effect on in vivo epileptic seizures in neonatal and adult animals. […] FIGS. 14A and 14B; Dzhala et al., “NKCC1 transporter facilitates seizures in the developing brain” Nature Medicine 11:1205-1213 (2005). […] FIGS. 14C and 14D.
# To test the in vivo anti-epilepsy effects of gluconate in neonatal and adult rodents, P8-12 Sprague-Dawley rats or 2-month old male C57BL/6 mice were deeply anesthetized with pentobarbital sodium (50 mg/kg for neonatal rat and 100 mg/kg for adult mice, intraperitoneal injection). Two stainless steel screws (1 mm in diameter) were inserted in the skull above the cortex as EEG recording electrodes, one ground electrode as well as one reference electrode were located +1.8 mm anterior to bregma, ±0.5 mm lateral to the midline, and 1 mm below the cortical surface. All electrodes were attached to a micro-connector and fixed onto the skull with dental cement. After surgery, neonatal rats were returned to their mothers and allowed to recover for 2 days prior to subsequent EEG recording. The adult mice were single housed in order to prevent damage of the implanted electrodes and allowed to recover at least 5 days before EEG recording.
# The baseline of EEG was recorded for 0.5-1 hr to allow the animal to adapt to the environment. Kainic acid (2 mg/kg) was administered intraperitoneally (i.p.) for neonatal epilepsy induction. D-gluconic acid sodium salt (2 g/kg) or 0.9% saline was injected i.p. 10 min after KA administration. Pentylenetetrazol (PTZ) was administered intraperitoneally for inducing a stable epileptic burst activity in adult mice, and D-gluconic acid sodium salt (1 g/kg and 2 g/kg) or 0.9% saline was injected i.p. 10 min before PTZ administration. Epileptiform activity was monitored for 1 hr after PTZ injection. Qian et al., “Epileptiform response of CA1 neurones to convulsant stimulation by cyclothiazide, kainic acid and pentylenetetrazol in anaesthetized rats” Seizure 20:312-319 (2011). After the experiment, animals were injected with diazepam to protect the animals from recurrent epilepsy.
# Power was calculated in 1-min time windows by integrating the power of dominant frequency bands from 1 to 100 Hz (EEG band).
# [2] = tested on: cultured cortical neurons; test: Epileptiform burst activity in cultured cortical neurons (whole-cell patch-clamp); type: cell-based, mouse
# Method: Mouse cortical neurons were prepared from newborn C57BL/6 mice as previously described. Qi et al., “Cyclothiazide induces robust epileptiform activity in rat hippocampal neurons both in vitro and in vivo” The Journal Of Physiology 571:605-618 (2006). Briefly, the newborn mouse cerebral cortices were dissected out in ice-cold HEPES-buffered saline solution, washed and digested with 0.05% trypsin-EDTA at 37° C. for 20 min. After deactivation of trypsin with serum-containing medium, cells were centrifuged, resuspended, and seeded on a monolayer of cortical astrocytes at a density of 10,000 cells/cm^2 in 24-well plates. The neuronal culture medium contained MEM (500 ml, Invitrogen), 5% fetal bovine serum (Atlanta Biologicals), 10 ml B-27 supplement (Invitrogen), 100 mg NaHCO3, 2 mM Glutamax (Invitrogen), and 25 units/ml penicillin & streptomycin. AraC (4 μM, Sigma) was added to inhibit the excessive proliferation of astrocytes. Cell cultures were maintained in a 5% CO2-humidified incubator at 37° C. for 14-21 days.
# The cultured neurons were placed in the recording chamber with continuous perfusion of the bath solution consisting of (mM): 128 NaCl, 10 Glucose, 25 HEPES, 5 KCl, 2 CaCl2, 1 MgSO4, pH 7.3 adjusted with NaOH, and osmolarity ˜300 mOsm. For recording spontaneous firing under current clamp mode, pipettes were filled with an internal solution containing (in mM): 125 K-gluconate, 5 Na-phosphocreatine, 5 EGTA, 10 KCl, 10 HEPES, 4 Mg-ATP, 0.3 Na-GTP, 280-290 mOsm, pH 7.3 adjusted with KOH. Epileptiform activity in cultured neurons was induced either by 10 μM CTZ for 24 h, or 1 μM KA for 2 h, or 50 μM 4-AP for 2 h. The burst activity was defined as previously described. Qi et al., “Cyclothiazide induces robust epileptiform activity in rat hippocampal neurons both in vitro and in vivo” The Journal Of Physiology 571:605-618 (2006). In brief, at least five consecutive action potentials overlaying on top of the large depolarization shift (≥10 mV depolarization and ≥300 ms in duration).
# [3] = tested on: Cl− channels; test: Cl− current recording in cultured cortical neurons; type: cell-based, mouse; settings: 10 mM NaGcA
structure (smiles),measurement,setting,value
"O=C([O-])[C@H](O)[C@@H](O)[C@H](O)[C@H](O)CO.[Na+] [NaGcA, D-gluconic acid sodium salt]",epileptic seizure (burst) activity in EEG,"[1]; P10-12, KA 2 mg/kg i.p., drug i.p. 10 min after KA: NaGcA 2 g/kg, phenobarbital 25 mg/kg, bumetanide 2 mg/kg, sodium salt",significantly inhibited; also recorded: potently inhibited; also recorded: essentially abolished; also recorded: no robust burst discharges
same,"average power of epileptic activity induced by KA, lowering","[1]; P10-12, NaGcA 2 g/kg i.p. vs saline, 1 min time window",70%
same,reduction of relative EEG power,"[1]; last 30 min of a 2-hr recording period after KA injection, neonatal",72.3%
same,KA-induced epileptiform burst activity,"[2]; 1 μM KA for 2 hrs, 10 mM NaGcA, sodium salt",greatly suppressed; also recorded: dramatically suppressed
same,neurons showing epileptiform activity after CTZ co-treatment,"[2]; 10 μM CTZ together with 10 mM NaGcA, 3 out of 17 neurons",18%
same,4-AP-induced epileptiform activity,"[2]; 50 μM 4-AP for 2 hrs, 10 mM NaGcA, sodium salt",completely blocked; also recorded: obviously suppressed
same,CTZ-induced epileptiform burst activity,"[2]; 10 mM NaGcA, acute application",completely blocked
same,spontaneous epileptiform activity (burst action potentials),"[2]; 5-20 mM NaGcA in bath solution (FIG. 1A: 20 mM), sodium salt",inhibited spontaneous epileptiform activity; also recorded: stopped immediately
same,induction of epileptiform activity by CTZ,"[2]; co-application of 10 μM CTZ and 10 mM NaGcA during induction, sodium salt",great reduction; also recorded: lack of burst activity
same,average frequency and duration of epileptiform bursts,[2]; neurons co-treated with CTZ and NaGcA (5 and 10 mM),significantly reduced
same,Cl− currents,[3]; recorded at +90 mV,499±89 pA
same,Cl− currents (inhibition),[3]; sodium salt,significantly decreased; also recorded: significant NaGcA inhibition
